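Test compounds were applied to cells in 96-well plates for 48 hours at 5 doses. GI50 is the concentration that inhibits growth by half. TGI: concentration producing complete growth inhibition.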
Columns and labels:
Assay in all cases: NCI-60 cell line screen, 48 h
786-0 renal = test system: 786-0 renal
A498 renal = test system: A498 renal
A549 NSCLC = test system: A549 NSCLC
ACHN renal = test system: ACHN renal
BT-549 breast = test system: BT-549 breast
CAKI-1 renal = test system: CAKI-1 renal
CCRF-CEM leukemia = test system: CCRF-CEM leukemia
COLO 205 colon = test system: COLO 205 colon
DU-145 prostate = test system: DU-145 prostate
EKVX NSCLC = test system: EKVX NSCLC
HCC-2998 colon = test system: HCC-2998 colon
HCT-116 colon = test system: HCT-116 colon
HCT-15 colon = test system: HCT-15 colon
HL-60(TB) leukemia = test system: HL-60(TB) leukemia
HOP-62 NSCLC = test system: HOP-62 NSCLC
HOP-92 NSCLC = test system: HOP-92 NSCLC
HS 578T breast = test system: HS 578T breast
HT29 colon = test system: HT29 colon
IGROV1 ovarian = test system: IGROV1 ovarian
K-562 leukemia = test system: K-562 leukemia
KM12 colon = test system: KM12 colon
LOX IMVI melanoma = test system: LOX IMVI melanoma
M14 melanoma = test system: M14 melanoma
MALME-3M melanoma = test system: MALME-3M melanoma
MCF7 breast = test system: MCF7 breast
MDA-MB-231 breast = test system: MDA-MB-231 breast
MDA-MB-435 = test system: MDA-MB-435
MOLT-4 leukemia = test system: MOLT-4 leukemia
NCI-H226 lung = test system: NCI-H226 lung
NCI-H460 lung = test system: NCI-H460 lung
NCI-H522 lung = test system: NCI-H522 lung
NCI/ADR-RES ovarian = test system: NCI/ADR-RES ovarian
OVCAR-4 ovarian = test system: OVCAR-4 ovarian
OVCAR-5 ovarian = test system: OVCAR-5 ovarian
OVCAR-8 ovarian = test system: OVCAR-8 ovarian
PC-3 prostate = test system: PC-3 prostate
RPMI-8226 leukemia = test system: RPMI-8226 leukemia
RXF 393 renal = test system: RXF 393 renal
SF-268 CNS = test system: SF-268 CNS
SF-295 CNS = test system: SF-295 CNS
SF-539 CNS = test system: SF-539 CNS
SK-MEL-2 melanoma = test system: SK-MEL-2 melanoma
SK-MEL-28 melanoma = test system: SK-MEL-28 melanoma
SK-MEL-5 melanoma = test system: SK-MEL-5 melanoma
SK-OV-3 ovarian = test system: SK-OV-3 ovarian
SN12C renal = test system: SN12C renal
SNB-19 CNS = test system: SNB-19 CNS
SNB-75 CNS = test system: SNB-75 CNS
SR leukemia = test system: SR leukemia
SW-620 colon = test system: SW-620 colon
T-47D breast = test system: T-47D breast
TK-10 renal = test system: TK-10 renal
U251 CNS = test system: U251 CNS
UACC-257 melanoma = test system: UACC-257 melanoma
UACC-62 melanoma = test system: UACC-62 melanoma
UO-31 renal = test system: UO-31 renal

c1n[nH]cc1-c1nc2ccc3[nH]ncc3c2c2c1CCCC2
GI50 (786-0 renal): 1410 nM | TGI (786-0 renal): 2720 nM | GI50 (A498 renal): 405 nM | TGI (A498 renal): 1920 nM | GI50 (A549 NSCLC): 2010 nM | TGI (A549 NSCLC): 12300 nM | GI50 (ACHN renal): 560 nM | TGI (ACHN renal): 10300 nM | GI50 (BT-549 breast): 1220 nM | TGI (BT-549 breast): 2490 nM | GI50 (CAKI-1 renal): 511 nM | TGI (CAKI-1 renal): 10400 nM | GI50 (CCRF-CEM leukemia): 2420 nM | TGI (CCRF-CEM leukemia): > 100000 nM | GI50 (COLO 205 colon): 1310 nM | TGI (COLO 205 colon): 4470 nM | GI50 (DU-145 prostate): 1710 nM | TGI (DU-145 prostate): 11600 nM | GI50 (EKVX NSCLC): 887 nM | TGI (EKVX NSCLC): 3330 nM | GI50 (HCC-2998 colon): 1640 nM | TGI (HCC-2998 colon): 7310 nM | GI50 (HCT-116 colon): 635 nM | TGI (HCT-116 colon): 7920 nM | GI50 (HCT-15 colon): 1380 nM | TGI (HCT-15 colon): 14000 nM | GI50 (HL-60(TB) leukemia): 1490 nM | TGI (HL-60(TB) leukemia): 5590 nM | GI50 (HOP-62 NSCLC): 1750 nM | TGI (HOP-62 NSCLC): 7680 nM | GI50 (HOP-92 NSCLC): 2240 nM | TGI (HOP-92 NSCLC): 6310 nM | GI50 (HS 578T breast): 914 nM | TGI (HS 578T breast): 4020 nM | GI50 (HT29 colon): 1670 nM | TGI (HT29 colon): 10900 nM | GI50 (IGROV1 ovarian): 1350 nM | TGI (IGROV1 ovarian): 8150 nM | GI50 (K-562 leukemia): 3010 nM | TGI (K-562 leukemia): > 100000 nM | GI50 (KM12 colon): 2910 nM | TGI (KM12 colon): 8900 nM | GI50 (LOX IMVI melanoma): 1150 nM | TGI (LOX IMVI melanoma): 2910 nM | GI50 (M14 melanoma): 1110 nM | TGI (M14 melanoma): 3360 nM | GI50 (MALME-3M melanoma): 1560 nM | TGI (MALME-3M melanoma): 4760 nM | GI50 (MCF7 breast): 2420 nM | TGI (MCF7 breast): 11700 nM | GI50 (MDA-MB-231 breast): 1960 nM | TGI (MDA-MB-231 breast): 12000 nM | GI50 (MDA-MB-435): 1400 nM | TGI (MDA-MB-435): 4380 nM | GI50 (MOLT-4 leukemia): 1990 nM | TGI (MOLT-4 leukemia): 7880 nM | GI50 (NCI-H226 lung): 1280 nM | TGI (NCI-H226 lung): 3650 nM | GI50 (NCI-H460 lung): 783 nM | TGI (NCI-H460 lung): 4850 nM | GI50 (NCI-H522 lung): 835 nM | TGI (NCI-H522 lung): 2770 nM | GI50 (NCI/ADR-RES ovarian): 2100 nM | TGI (NCI/ADR-RES ovarian): 6050 nM | GI50 (OVCAR-4 ovarian): 2350 nM | TGI (OVCAR-4 ovarian): 7930 nM | GI50 (OVCAR-5 ovarian): 2710 nM | TGI (OVCAR-5 ovarian): 17900 nM | GI50 (OVCAR-8 ovarian): 1640 nM | TGI (OVCAR-8 ovarian): 4380 nM | GI50 (PC-3 prostate): 2370 nM | TGI (PC-3 prostate): 11600 nM | GI50 (RPMI-8226 leukemia): 1510 nM | TGI (RPMI-8226 leukemia): 4940 nM | GI50 (RXF 393 renal): 1170 nM | TGI (RXF 393 renal): 2770 nM | GI50 (SF-268 CNS): 1950 nM | TGI (SF-268 CNS): 4630 nM | GI50 (SF-295 CNS): 2110 nM | TGI (SF-295 CNS): 8490 nM | GI50 (SF-539 CNS): 1380 nM | TGI (SF-539 CNS): 3090 nM | GI50 (SK-MEL-2 melanoma): 1260 nM | TGI (SK-MEL-2 melanoma): 3120 nM | GI50 (SK-MEL-28 melanoma): 1590 nM | TGI (SK-MEL-28 melanoma): 4510 nM | GI50 (SK-MEL-5 melanoma): 1280 nM | TGI (SK-MEL-5 melanoma): 3220 nM | GI50 (SK-OV-3 ovarian): 680 nM | TGI (SK-OV-3 ovarian): 11600 nM | GI50 (SN12C renal): 1840 nM | TGI (SN12C renal): 7540 nM | GI50 (SNB-19 CNS): 2780 nM | TGI (SNB-19 CNS): 9850 nM | GI50 (SNB-75 CNS): 1310 nM | TGI (SNB-75 CNS): 2880 nM | GI50 (SR leukemia): 287 nM | TGI (SR leukemia): 5450 nM | GI50 (SW-620 colon): 924 nM | TGI (SW-620 colon): 6540 nM | GI50 (T-47D breast): 2210 nM | TGI (T-47D breast): 8180 nM | GI50 (TK-10 renal): 766 nM | TGI (TK-10 renal): 8200 nM | GI50 (U251 CNS): 2060 nM | TGI (U251 CNS): 12100 nM | GI50 (UACC-257 melanoma): 1860 nM | TGI (UACC-257 melanoma): 6640 nM | GI50 (UACC-62 melanoma): 1060 nM | TGI (UACC-62 melanoma): 3250 nM | GI50 (UO-31 renal): 1540 nM | TGI (UO-31 renal): 7650 nM

— PubChem BioAssay (NCI)
